Measured values: ChEMBL document CHEMBL1201862, “PubChem BioAssay data set” (2004)
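Each compound was tested at five concentrations against cells in 96-well plates for 48 hours. GI50: concentration for 50% inhibition of growth.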 Active and inactive are the calls of the source. Rule as the data show it: active = GI50 up to about 1.1 µM and inactive = higher. Where a SMILES comes first, the peptide text is derived from it. The star is where a group is joined. Cbz = O=C(OCc1ccccc1)*; NHNH2 = NN*

How the values were obtained:
Experiment in all cases: NCI-60 cell line screen, 48 h
[1] = system: Hs-578T
[2] = system: BT-549
[3] = system: MDA-MB-231

Row | SMILES | GI50 [1] | GI50 [2] | GI50 [3]
1 | O=S(=O)(O)c1cc(S(=O)(=O)O)c2c(/N=N/c3ccccc3)c(O)ccc2c1 | > 100 µM (inactive) | > 100 µM (inactive) | > 100 µM (inactive)
2 | CCOC(O)(NC(=O)C(C(F)(F)F)C(F)(F)F)C(F)(F)F (configuration not stated) | > 100 µM (inactive) | > 100 µM (inactive) | 
3 | COc1cc(/C=C2\N=C(c3ccccc3)N(c3ccc(S(=O)(=O)Nc4nccs4)cc3)C2=O)ccc1O | > 100 µM (inactive) | 73.6 µM (inactive) | 
4 | O=C1C=CC(O)(C#CCO)C=C1 | 29.2 µM (inactive) | 12 µM (inactive) | 18.7 µM (inactive)
5 | O=C1OC2(C(F)(F)F)Oc3ccccc3CN2C12CCCCC2 (configuration not stated) |  | 28.4 µM (inactive) | 24.2 µM (inactive)
6 | CC1=NN(c2nc(N)nc(CSCc3nc(N)nc(N(C)C)n3)n2)C(C)(C)C1 | > 100 µM (inactive) | > 100 µM (inactive) | > 100 µM (inactive)
7 | CC(C)C(=O)OCC1OC(n2c(Br)nc3c(=O)[nH]c(N)nc32)C(OC(=O)C(C)C)C1OC(=O)C(C)C (configuration not stated) | 29 µM (inactive) | 35.5 µM (inactive) | > 100 µM (inactive)
8 | Cn1nc(-c2ccc(S(=O)(=O)N/C(=N/c3ccc(Cl)cc3)NN)s2)cc1C(F)(F)F |  | 17.8 µM (inactive) | 16.8 µM (inactive)
9 | O=C(OCCN=c1c2ccccc2ccc2ccccc12)c1cc([N+](=O)[O-])cc([N+](=O)[O-])c1 | > 100 µM (inactive) | 25.8 µM (inactive) | > 100 µM (inactive)
10 | COc1ccc(C2=C(OC(=O)N(C)C)c3cccn3-c3cc(Cl)ccc3S2)cc1 |  |  | > 10 µM (inactive)
11 | NC1CNC(=O)c2c(Cl)sc(Cl)c21 (configuration not stated) | > 100 µM (inactive) |  | > 100 µM (inactive)
12 | COc1ccc(OC)c2sc(N3C(=O)/C(=C/c4cccc([N+](=O)[O-])c4)N=C3c3ccccc3)nc12 | 51.9 µM (inactive) | 48.5 µM (inactive) | > 100 µM (inactive)
13 | O=c1c2c(F)c(F)c(F)c(F)c2sc2nccn12 | 31.3 µM (inactive) |  | 20.3 µM (inactive)
14 | CSc1nc(-c2ccc(C)cc2)c(C#N)c(=O)[nH]1 | > 100 µM (inactive) | > 100 µM (inactive) | > 100 µM (inactive)
15 | NCCCC[C@H](N)C(=O)Nc1ccc(-c2nc3ccccc3s2)cc1Cl | 16.3 µM (inactive) |  | 11.6 µM (inactive)
16 | OC1(c2ccc(Cl)cc2)c2c(ccc3c2OCO3)C2=NCCN21 (configuration not stated) | 20.8 µM (inactive) | 32.3 µM (inactive) | 28.4 µM (inactive)
17 | Cc1cc(S(=O)(=O)NC2=Nc3ccc(Cl)cc3C(c3ccccc3)N2)c(S)cc1Cl (configuration not stated) | > 100 µM (inactive) | > 100 µM (inactive) | > 100 µM (inactive)
18 | Brc1cccc(C2(CCCC3(c4cccc(Br)n4)OCCO3)OCCO2)n1 |  | > 100 µM (inactive) | > 100 µM (inactive)
19 | O=C1c2ccccc2-c2nc(-c3ccccc3)cc3c2c1nc1ccccc13 | 22.6 µM (inactive) | 17.7 µM (inactive) | 17.6 µM (inactive)
20 | O=C(c1ccco1)C1CC(c2ccc3ccccc3c2O)=NN1 (configuration not stated) | > 100 µM (inactive) | > 100 µM (inactive) | 30.8 µM (inactive)
21 | CCOC(=O)CCC(NC(=O)OCc1ccccc1)C(=O)NC(CCC(=O)OCC)C(=O)NN (configuration not stated) (Cbz-Glu(OEt)-Glu(OEt)-NHNH2; configuration not given here) | > 100 µM (inactive) | > 100 µM (inactive) | > 100 µM (inactive)
22 | Clc1ccc(-c2nn3c(-c4ccncc4)nnc3s2)cc1 | > 100 µM (inactive) | > 100 µM (inactive) | 66.7 µM (inactive)
23 | CCOC(=O)c1c(-c2ccc(Br)cc2)ccn1C | > 10 µM (inactive) | > 10 µM (inactive) | > 10 µM (inactive)
24 | COC(=O)c1c(C)[nH]c2c1cc(O)c1nc(C)c(C)nc12 | 45.9 µM (inactive) | > 100 µM (inactive) | 
25 | COc1cccc(-c2cc(=O)c3cc(N4CCCCC4)ccc3[nH]2)c1 | < 0.014 µM (active) |  | 0.0432 µM (active)
26 | CSC(=S)N/N=C(\C)c1ccc(S(=O)(=O)N(C)c2ccccc2)cc1 | 15.5 µM (inactive) |  | 98.4 µM (inactive)
27 | OCC1OC(n2nc(-c3ccccc3)nc2-c2cnccn2)C(O)C(O)C1O (configuration not stated) |  | > 100 µM (inactive) | > 100 µM (inactive)
